Experimental data published in ChEMBL document CHEMBL5352446, “Synthesis and biological evaluation of a novel c-Myc inhibitor against colorectal cancer via blocking c-Myc/Max heterodimerization and disturbing its DNA binding” (Eur J Med Chem, 2022).

Key:
HCT-15 = test: Antiproliferative activity against human HCT-15 cells incubated for 72 hrs by MTT assay; format: functional, cell-based; settings: HCT-15, 72 h
HCT-8 = test: Antiproliferative activity against human HCT-8 cells incubated for 72 hrs by MTT assay; format: functional, cell-based; settings: HCT-8, 72 h
HT-29 [1] = test: cells; settings: Homo sapiens, HT-29, 72 h
Description: Antiproliferative activity against human HT-29 cells incubated for 72 hrs by MTT assay

HCT-116 = test: cells; settings: Homo sapiens, HCT-116, 72 h
Description: Antiproliferative activity against human HCT-116 cells incubated for 72 hrs by MTT assay

c-Myc/c-Max = c-Myc/c-Max (Homo sapiens, UniProt P01106+P61244); test: Inhibition of c-Myc to Max protein dimerization (unknown origin) by electrophoretic mobility shift assay
HT-29 [2] = test: Downregulation of c-Myc expression in human […] cells incubated for 24 hrs by Western blot analysis; format: functional, cell-based; settings: dose 2.5-10 µM
HT-29 [3] = test: Antitumor activity against human HT-29 cells xenografted in BALB/c mouse assessed as tumor growth inhibition at 40 mg/kg, ip administered daily for 3 weeks by caliper method; format: functional; settings: HT-29, 504 h, read-out: TGI
HT-29 [4] = test: Inhibition of colony formation in human HT-29 cells measured after 14 days by crystal violet staining based assay; format: functional, cell-based; settings: dose 0.25-2 µM, time 14.0 day
Homo sapiens = species on record: Homo sapiens; test: Inhibition of human Myc (353 to 439 residues)/Max(S) (151 residues) expressed in Escherichia coli BL21(DE3) binding to biotinylated double-stranded DNA oligonucleotide 5'-CACCCGGTCACTGGCCTACAC-3' (unknown origin) preincubated for 90 mins followed by oligonucleotide addition for 25 mins by EMSA; settings: time 115.0 min
[5] = Inhibition of c-Myc/Max binding to DNA (unknown origin) by fluorescence polarization assay; parameters: species or system Homo sapiens
[6] = Toxicity in BALB/c mouse xenografted with human HT-29 cells assessed as kidney damage at 40 mg/kg, ip measured after 21 days by H and E staining based assay; format: organism-based; settings: in vivo, 504 h, time 21 day
[7] = Toxicity in BALB/c mouse xenografted with human HT-29 cells assessed as lung damage at 40 mg/kg, ip measured after 21 days by H and E staining based assay; format: organism-based; settings: in vivo, 504 h, time 21 day
[8] = Toxicity in BALB/c mouse xenografted with human HT-29 cells assessed as body weight loss at 40 mg/kg, ip measured after 12 days; format: organism-based; settings: in vivo, 288 h, time 12 day
[9] = Toxicity in BALB/c mouse xenografted with human HT-29 cells assessed as liver damage at 40 mg/kg, ip measured after 21 days by H and E staining based assay; format: organism-based; settings: in vivo, 504 h, time 21 day
[10] = Toxicity in BALB/c mouse xenografted with human HT-29 cells assessed as heart damage at 40 mg/kg, ip measured after 21 days by H and E staining based assay; format: organism-based; settings: in vivo, 504 h, time 21 day

c-Myc/c-Max, sequence (P01106 whole entry): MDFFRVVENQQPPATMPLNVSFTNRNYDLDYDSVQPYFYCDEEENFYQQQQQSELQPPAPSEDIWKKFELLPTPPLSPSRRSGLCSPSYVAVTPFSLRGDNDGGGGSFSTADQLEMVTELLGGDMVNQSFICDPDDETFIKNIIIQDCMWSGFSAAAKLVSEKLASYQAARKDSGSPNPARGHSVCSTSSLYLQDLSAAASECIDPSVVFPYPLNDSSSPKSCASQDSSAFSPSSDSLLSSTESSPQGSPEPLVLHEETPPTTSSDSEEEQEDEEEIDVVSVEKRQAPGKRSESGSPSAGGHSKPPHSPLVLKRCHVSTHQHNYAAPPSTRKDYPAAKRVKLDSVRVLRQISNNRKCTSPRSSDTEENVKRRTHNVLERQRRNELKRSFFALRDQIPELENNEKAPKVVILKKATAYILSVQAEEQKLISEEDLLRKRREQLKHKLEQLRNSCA
c-Myc/c-Max, sequence (P61244 whole entry): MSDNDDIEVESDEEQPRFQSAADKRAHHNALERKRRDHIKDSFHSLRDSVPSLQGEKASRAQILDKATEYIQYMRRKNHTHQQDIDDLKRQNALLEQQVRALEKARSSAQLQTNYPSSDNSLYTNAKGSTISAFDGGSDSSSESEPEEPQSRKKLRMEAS

Row | Structure (SMILES) | IC50 (HCT-15) [µM] | IC50 (HCT-8) [µM] | IC50 (HT-29 [1]) [µM] | IC50 (HCT-116) [µM] | also measured
1 | COc1cc(Oc2ccc(Nc3ccc(SC)cc3)cc2)cc(OC)c1CNCCc1ccc(C(F)(F)F)cc1 | 2.13 | 8.36 | 1.72 | 3.79 | –
2 | CCOc1ccc(Nc2ccc(Oc3cc(OC)c(CNCCc4ccc(C(F)(F)F)cc4)c(OC)c3)cc2)cc1 | 5.3 | 5.32 | 0.86 | 3.08 | –
3 | COc1cc(Oc2ccc(-c3ccccc3)cc2)cc(OC)c1CNCCc1ccc(C(F)(F)F)cc1 | 1.55 | 6.98 | 1.41 | 2.8 | –
4 | COc1cc(Oc2ccc(-c3ccc(F)cc3)cc2)cc(OC)c1CNCCc1ccc(C(F)(F)F)cc1 | 4.23 | 7.89 | 1.95 | 3.77 | –
5 | COc1cc(Oc2ccc(Nc3ccc(C)cc3)cc2)cc(OC)c1CNCCc1ccc(C(F)(F)F)cc1 | 5.61 | 7.13 | 1.11 | 2.13 | –
6 | COc1cc(Oc2ccc(Nc3ccccc3)cc2)cc(OC)c1CNCCc1ccc(N)cc1 | 5.65 | 6.21 | 2.65 | 2.87 | –
7 | COc1cc(Oc2ccc(Nc3ccccc3)cc2)cc(OC)c1CNCCc1ccc(Br)cc1 | 6.97 | 7.13 | 2.38 | 2.96 | –
8 | COc1cc(Oc2ccc(-c3ccc(Br)cc3)cc2)cc(OC)c1CNCCc1ccc(C(F)(F)F)cc1 | 2.23 | 8.75 | 2.57 | 2.71 | –
9 | COc1cc(Oc2ccc(Nc3ccc(C(F)(F)F)cc3)cc2)cc(OC)c1CNCCc1ccc(C(F)(F)F)cc1 | 3.24 | 8.49 | 1.31 | 6.46 | –
10 | COc1cc(Oc2ccc(Nc3ccccc3)cc2)cc(OC)c1CNCCc1cccs1 | 7.56 | 10.8 | 2.65 | 3.85 | –
11 | COC(=O)c1ccc(Nc2ccc(Oc3cc(OC)c(CNCCc4ccc(C(F)(F)F)cc4)c(OC)c3)cc2)cc1 | 4.35 | 7.34 | 1.28 | 5.98 | –
12 | COc1cc(Oc2ccc(-c3ccc(C)cc3)cc2)cc(OC)c1CNCCc1ccc(C(F)(F)F)cc1 | 2.32 | 8.95 | 1.35 | 2.41 | –
13 | O=C(O)c1ccc(Nc2ccc([N+](=O)[O-])c3nonc23)cc1 | – | – | – | – | IC50 (c-Myc/c-Max): 33 µM
14 | COc1ccc(CCNCc2c(OC)cc(Oc3ccc(Nc4ccccc4)cc3)cc2OC)cc1 | 3.15 | 4.81 | 1.36 | 1.95 | Activity (HT-29 [2]): Dose-Dependent Effect; inhibition in vivo at 40 mg/kg (HT-29 [3]): 55.8%; inhibition (HT-29 [4]): Dose-Dependent Effect; inhibition (Homo sapiens): Dose-Dependent Effect
15 | CCc1ccc(Nc2ccc(Oc3cc(OC)c(CNCCc4ccc(C(F)(F)F)cc4)c(OC)c3)cc2)cc1 | 5.54 | 4.58 | 1.51 | 3.87 | –
16 | COc1cc(Oc2ccc(Nc3ccccc3)cc2)cc(OC)c1CNCCc1ccc(C(F)(F)F)cc1 | 2.78 | 4.23 | 1.05 | 1.75 | –
17 | COc1cc(Oc2ccc(Nc3ccccc3)cc2)cc(OC)c1CNCCc1ccc(O)cc1 | 4.54 | 6.78 | 2.75 | 3.46 | –
18 | COc1cc(Oc2ccc(Nc3ccc(C(F)(F)F)c(F)c3)cc2)cc(OC)c1CNCCc1ccc(C(F)(F)F)cc1 | 2.34 | 8.63 | 1.42 | 1.74 | –
19 | COc1cc(Oc2ccc(Nc3ccc(CO)cc3)cc2)cc(OC)c1CNCCc1ccc(C(F)(F)F)cc1 | 3.33 | 3.23 | 1.03 | 3.22 | –
20 | COc1cc(Oc2ccc(Nc3ccc(C#N)cc3)cc2)cc(OC)c1CNCCc1ccc(C(F)(F)F)cc1 | 2.43 | 6.75 | 0.9 | 2.38 | –
21 | COc1cc(Oc2ccc(Nc3ccc(-c4ccccc4)cc3)cc2)cc(OC)c1CNCCc1ccc(C(F)(F)F)cc1 | 3.41 | 5.88 | 1.7 | 3.85 | –
22 | COc1cc(Oc2ccc(Nc3ccc(C(C)(C)C)cc3)cc2)cc(OC)c1CNCCc1ccc(C(F)(F)F)cc1 | 5.76 | 9.76 | 2.18 | 6.48 | –
23 | COc1cc(Oc2ccc(Nc3ccccc3)cc2)cc(OC)c1CNCCc1ccc(Cl)cc1 | 6.64 | 6.13 | 2.44 | 4.98 | –

Row | Structure (SMILES) | IC50 (HCT-15) [µM] | IC50 (HCT-8) [µM] | IC50 (HT-29 [1]) [µM] | IC50 (HCT-116) [µM] | also measured
24 | C=C(OCC)c1cnn(-c2ccccc2)c1NC(=O)c1cc2nc(-c3ccco3)cc(C(F)(F)Cl)n2n1 | – | – | – | – | IC50 [5]: 40 µM
25 | COc1cc(Oc2ccc(Nc3ccc(CCO)cc3)cc2)cc(OC)c1CNCCc1ccc(C(F)(F)F)cc1 | 3.21 | 3.58 | 0.86 | 2.05 | –
26 | COc1cc(Oc2ccc(Nc3ccccc3)cc2)cc(OC)c1CNCCc1ccccn1 | 6.87 | 11.2 | 2.94 | 2.76 | –
27 | COc1cc(Oc2ccc(Nc3ccccc3)cc2)cc(OC)c1CNCCc1ccc(F)cc1 | 5.64 | 6.32 | 2.79 | 3.13 | –
28 | COc1ccc(Nc2ccc(Oc3cc(OC)c(CNCCc4ccc(C(F)(F)F)cc4)c(OC)c3)cc2)cc1OC | 3.35 | 3.13 | 0.92 | 1.35 | –
29 | COc1cc(Oc2ccc(Nc3ccc(F)cc3)cc2)cc(OC)c1CNCCc1ccc(C(F)(F)F)cc1 | 6.23 | 5.32 | 1.47 | 3.4 | –
30 | COc1cc(Oc2ccc(Nc3ccc(C(=O)C(F)(F)F)cc3)cc2)cc(OC)c1CNCCc1ccc(C(F)(F)F)cc1 | 1.89 | 7.86 | 1.93 | 2.43 | –
31 | COc1cc(Oc2ccc(-c3ccc(Cl)cc3)cc2)cc(OC)c1CNCCc1ccc(C(F)(F)F)cc1 | 3.23 | 6.09 | 2.06 | 5.05 | –
32 | COc1ccc(CCNCc2c(OC)cc(Oc3ccc(Nc4ccccc4)cc3)cc2OC)cc1OC | 3.54 | 6.32 | 1.54 | 2.62 | –
33 | COc1cc(Oc2ccc(Nc3ccccc3)cc2)cc(OC)c1CNCCc1ccc(C)cc1 | 5.88 | 10.2 | 2.83 | 4.01 | –
34 | COc1cc(Oc2ccc(Nc3ccc(Cc4ccccc4)cc3)cc2)cc(OC)c1CNCCc1ccc(C(F)(F)F)cc1 | 4.48 | 6.57 | 1.13 | 5.21 | –
35 | COc1cc(Oc2ccc(Nc3ccc(Br)cc3)cc2)cc(OC)c1CNCCc1ccc(C(F)(F)F)cc1 | 3.85 | 6.98 | 1.31 | 3.54 | –
36 | COc1cc(Oc2ccc(-c3ccc(C(F)(F)F)cc3)cc2)cc(OC)c1CNCCc1ccc(C(F)(F)F)cc1 | 4.89 | 8.76 | 2.51 | 4.7 | –
37 | COc1cc(Oc2ccc(Nc3ccc(-c4cnc5ccccc5c4)cc3)cc2)cc(OC)c1CNCCc1ccc(C(F)(F)F)cc1 | 1.58 | 6.77 | 1.99 | 3.12 | –
38 | COc1cc(Oc2ccc(Nc3ccc(Cl)cc3)cc2)cc(OC)c1CNCCc1ccc(C(F)(F)F)cc1 | 5.31 | 4.1 | 1.29 | 3.53 | –
39 | COc1ccc(-c2ccc(Oc3cc(OC)c(CNCCc4ccc(C(F)(F)F)cc4)c(OC)c3)cc2)cc1 | 2.34 | 6.45 | 2.19 | 2.62 | –
40 | O=c1[nH]cc(F)c(=O)[nH]1 [FLUOROURACIL] | 8.23 | > 20 | 9.19 | 6.5 | inhibition in vivo at 40 mg/kg (HT-29 [3]): 50.2%; Activity [6]: Toxic; Activity [7]: Toxic; Activity [8]: Toxic; Activity [9]: Toxic; Activity [10]: Toxic
41 | COc1cc(Oc2ccc(Nc3ccc(C(F)(F)F)c(C(F)(F)F)c3)cc2)cc(OC)c1CNCCc1ccc(C(F)(F)F)cc1 | 2.12 | 6.98 | 2.35 | 1.64 | –
42 | CCCCc1ccc(Nc2ccc(Oc3cc(OC)c(CNCCc4ccc(C(F)(F)F)cc4)c(OC)c3)cc2)cc1 | 4.86 | 4.98 | 1.75 | 3.1 | –
43 | COc1ccc(Nc2ccc(Oc3cc(OC)c(CNCCc4ccc(C(F)(F)F)cc4)c(OC)c3)cc2)cc1C | 7.09 | 6.97 | 2.34 | 5.25 | –
44 | COc1ccc(Nc2ccc(Oc3cc(OC)c(CNCCc4ccc(C(F)(F)F)cc4)c(OC)c3)cc2)cc1 | 6.37 | 4.22 | 1.41 | 1.91 | –
45 | CCCc1ccc(Nc2ccc(Oc3cc(OC)c(CNCCc4ccc(C(F)(F)F)cc4)c(OC)c3)cc2)cc1 | 5.62 | 4.1 | 1.6 | 3.23 | –
